From EP2951180B1, “2,6,7,8 SUBSTITUTED PURINES AS HDM2 INHIBITORS” (Merck Sharp & Dohme Corp., priority 2013, dated 2014)

Molecular target: T1, HDM2 (Homo sapiens, UniProt Q00987)
T1 construct: Thioredoxin (N); made in house; host or cells: E. coli strain BL21(DE3)Rosetta
Assay: HDM2 FRET assay (inhibition of binding of FITC labeled p53-pocket peptide to HDM2)
Conditions: Table 10; read-out: FRET IC50
Outline: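 Compounds were tested in 10-point serial dilution against 0.5 nM recombinant HDM2 binding 3 nM fluorescein-labeled p53-pocket peptide. Detection used 0.25 nM terbium cryptate anti-6xHis antibody in PBS buffer containing 0.01% BSA and 0.01% Tween-20.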

T1 sequence (Q00987 17-125): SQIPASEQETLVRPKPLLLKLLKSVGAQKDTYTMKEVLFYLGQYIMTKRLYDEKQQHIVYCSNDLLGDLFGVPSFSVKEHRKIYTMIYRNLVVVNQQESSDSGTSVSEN

Row | Structure (SMILES) | IC50 [nM]
1 | CC(C)CN(C)C(C)c1nc2nc(C(=O)O)nc(N[C@H](C)C3CCC3)c2n1Cc1ccc(C(F)(F)F)cc1 (stereo partly drawn) [Example 10.9, 6-(((R)-1-cyclobutylethyl)amino)-8-(1-(isobutyl(methyl)amino)ethyl)-7-(4-(trifluoromethyl)benzyl)-7H-purine-2-carboxylic acid] | 21.2
2 | CC(c1nc2nc(C(=O)O)nc(N[C@H](C)C3CCC3)c2n1Cc1ccc(C(F)(F)F)cc1)N(C)c1ccccc1 (stereo partly drawn) [Example 10.10, 6-(((R)-1-cyclobutylethyl)amino)-8-(1-(methyl(phenyl)amino)ethyl)-7-(4-(trifluoromethyl)benzyl)-7H-purine-2-carboxylic acid] | 68.8
3 | CC(c1nc2nc(C(=O)O)nc(N[C@H](C)C3CCC3)c2n1Cc1ccc(C(F)(F)F)cc1)N(C)C1CCCCC1 (stereo partly drawn) [Example 10.11, 6-(((R)-1-cyclobutylethyl)amino)-8-(1-(cyclohexyl(methyl)amino)ethyl)-7-(4-(trifluoromethyl)benzyl)-7H-purine-2-carboxylic acid] | 22.1
4 | CC(c1nc2nc(C(=O)O)nc(N[C@H](C)C3CCC3)c2n1Cc1ccc(C(F)(F)F)cc1)N(C)Cc1ccccc1 (stereo partly drawn) [Example 10.12, 8-(1-(benzyl(methyl)amino)ethyl)-6-(((R)-1-cyclobutylethyl)amino)-7-(4-(trifluoromethyl)benzyl)-7H-purine-2-carboxylic acid] | 139
5 | C[C@@H](Nc1nc(C(=O)O)nc2nc(CN(C)Cc3ccccc3)n(Cc3ccc(C(F)(F)F)cc3)c12)C1CCC1 [Example 10.13, (R)-8-((benzyl(methyl)amino)methyl)-6-((1-cyclobutylethyl)amino)-7-(4-(trifluoromethyl)benzyl)-7H-purine-2-carboxylic acid] | 47.7
6 | C[C@@H](Nc1nc(C(=O)O)nc2nc(CN(C)C3CCCCC3)n(Cc3ccc(C(F)(F)F)cc3)c12)C1CCC1 [Example 10.14, (R)-6-((1-cyclobutylethyl)amino)-8-((cyclohexyl(methyl)amino)methyl)-7-(4-(trifluoromethyl)benzyl)-7H-purine-2-carboxylic acid] | 4.53
7 | C[C@@H](Nc1nc(C(=O)O)nc2nc(C(=O)N[C@@H](CO)c3ccccc3)n(Cc3ccc(C(F)(F)F)cc3)c12)C1CCC1 [Example 10.15, 6-(((R)-1-cyclobutylethyl)amino)-8-(((R)-2-hydroxy-1-phenylethyl)carbamoyl)-7-(4-(trifluoromethyl)benzyl)-7H-purine-2-carboxylic acid] | 202
8 | CC(C)CNC(=O)c1nc2nc(C(=O)O)nc(N[C@H](C)C3CCC3)c2n1Cc1ccc(C(F)(F)F)cc1 [Example 10.16, (R)-6-((1-Cyclobutylethyl)amino)-8-(isobutylcarbamoyl)-7-(4-(trifluoromethyl)benzyl)-7H-purine-2-carboxylic acid] | 37
9 | C[C@@H](Nc1nc(C(=O)O)nc2nc(C(=O)NCC3CC3)n(Cc3ccc(C(F)(F)F)cc3)c12)C1CCC1 [Example 10.17, (R)-6-((1-Cyclobutylethyl)amino)-8-((cyclopropylmethyl)carbamoyl)-7-(4-(trifluoromethyl)benzyl)-7H-purine-2-carboxylic acid] | 67.7
10 | C[C@@H](Nc1nc(C(=O)O)nc2nc(C(=O)NCc3ccccc3)n(Cc3ccc(C(F)(F)F)cc3)c12)C1CCC1 [Example 10.18, (R)-8-(Benzylcarbamoyl)-6-((1-cyclobutylethyl)amino)-7-(4-(trifluoromethyl)benzyl)-7H-purine-2-carboxylic acid] | 58.9
11 | C[C@@H](Nc1nc(C(=O)O)nc2nc(C(=O)NC3CCCCC3)n(Cc3ccc(C(F)(F)F)cc3)c12)C1CCC1 [Example 10.19, (R)-6-((1-Cyclobutylethyl)amino)-8-(cyclohexylcarbamoyl)-7-(4-(trifluoromethyl)benzyl)-7H-purine-2-carboxylic acid] | 68
12 | C[C@@H](Nc1nc(C(=O)O)nc2nc(C(=O)Nc3ccccc3)n(Cc3ccc(C(F)(F)F)cc3)c12)C1CCC1 [Example 10.20, (R)-6-((1-Cyclobutylethyl)amino)-8-(phenylcarbamoyl)-7-(4-(trifluoromethyl)benzyl)-7H-purine-2-carboxylic acid] | 189
13 | C[C@@H](Nc1nc(C(=O)O)nc2nc(C(=O)N3CCCC(C)(C)C3)n(Cc3ccc(C(F)(F)F)cc3)c12)C1CCC1 [Example 10.21, (R)-6-((1-Cyclobutylethyl)amino)-8-(3,3-dimethylpiperidine-1-carbonyl)-7-(4-(trifluoromethyl)benzyl)-7H-purine-2-carboxylic acid] | 22.3
14 | C[C@@H](Nc1nc(C(=O)O)nc2nc(C3=N[C@H](c4ccccc4)CO3)n(Cc3ccc(C(F)(F)F)cc3)c12)C1CCC1 [Example 10.22, 6-(((R)-1-Cyclobutylethyl)amino)-8-((R)-4-phenyl-4,5-dihydrooxazol-2-yl)-7-(4-(trifluoromethyl)benzyl)-7H-purine-2-carboxylic acid] | 28.4
15 | C[C@@H](Nc1nc(C(=O)O)nc2nc(C3CCCCN3C)n(Cc3ccc(C(F)(F)F)cc3)c12)C1CCC1 (stereo partly drawn) [Example 10.23, 6-(((R)-1-Cyclobutylethyl)amino)-8-(1-methylpiperidin-2-yl)-7-(4-(trifluoromethyl)benzyl)-7H-purine-2-carboxylic acid] | 48
16 | C[C@@H](Nc1nc(C(=O)O)nc2nc(C3CCCCN3)n(Cc3ccc(C(F)(F)F)cc3)c12)C1CCC1 (stereo partly drawn) [Example 10.24, 6-(((R)-1-Cyclobutylethyl)amino)-8-(piperidin-2-yl)-7-(4-(trifluoromethyl)benzyl)-7H-purine-2-carboxylic acid] | 96.3
17 | CCN1CCCCC1c1nc2nc(C(=O)O)nc(N[C@H](C)C3CCC3)c2n1Cc1ccc(C(F)(F)F)cc1 (stereo partly drawn) [Example 10.25, 6-(((R)-1-Cyclobutylethyl)amino)-8-(1-ethylpiperidin-2-yl)-7-(4-(trifluoromethyl)benzyl)-7H-purine-2-carboxylic acid] | 35.4
18 | CCCN(c1nc2nc(C(=O)O)nc(N[C@H](C)C3CCC3)c2n1Cc1ccc(C(F)(F)F)cc1)[C@@H](C)c1cccc(F)c1 [Example 10.26, 6-{[(1R)-1-cyclobutylethyl]amino}-8-{[(1S)-1-(3-fluorophenyl)ethyl](propyl)amino}-7-[4-(trifluoromethyl)benzyl]-7H-purine-2-carboxylic acid] | 1.94
19 | C=CCN(c1nc2nc(C(=O)O)nc(N[C@H](C)C3CCC3)c2n1Cc1ccc(C(F)(F)F)cc1)[C@@H](C)c1cccc(F)c1 [Example 10.27, 8-(Allyl((S)-1-(3-fluorophenyl)ethyl)amino)-6-(((R)-1-cyclobutylethyl)amino)-7-(4-(trifluoromethyl)benzyl)-7H-purine-2-carboxylic acid] | 9.84
20 | C=CCN(c1nc(C(=O)O)nc2nc(N[C@@H](C)c3cccc(F)c3)n(Cc3ccc(C(F)(F)F)cc3)c12)[C@H](C)C1CCC1 [Example 10.28, 6-(Allyl((R)-1-cyclobutylethyl)amino)-8-(((S)-1-(3-fluorophenyl)ethyl)amino)-7-(4-(trifluoromethyl)benzyl)-7H-purine-2-carboxylic acid] | 22.2
21 | C[C@@H](Nc1nc(C(=O)O)nc2nc(N(CC3CC3)[C@@H](C)c3ccccc3)n(Cc3ccc(C(F)(F)F)cc3)c12)C1CCC1 [Example 10.29, 6-(((R)-1-Cyclobutylethyl)amino)-8-((cyclopropylmethyl)((S)-1-phenylethyl)amino)-7-(4-(trifluoromethyl)benzyl)-7H-purine-2-carboxylic acid] | 35.3
22 | C=CCN(c1nc2nc(C(=O)O)nc(N[C@H](C)C3CCC3)c2n1Cc1ccc(C(F)(F)F)cc1)C(C)c1ccccn1 (stereo partly drawn) [Example 10.30, 8-(Allyl(1-(pyridin-2-yl)ethyl)amino)-6-(((R)-1-cyclobutylethyl)amino)-7-(4-(trifluoromethyl)benzyl)-7H-purine-2-carboxylic acid] | 9.07
23 | C=CCN(c1nc(C(=O)O)nc2nc(NC(C)c3ccccn3)n(Cc3ccc(C(F)(F)F)cc3)c12)[C@H](C)C1CCC1 (stereo partly drawn) [Example 10.31, 6-(allyl((R)-1-cyclobutylethyl)amino)-8-((1-(pyridin-2-yl)ethyl)amino)-7-(4-(trifluoromethyl)benzyl)-7H-purine-2-carboxylic acid] | 54.9
24 | CCCN(c1nc2nc(C(=O)O)nc(N[C@H](C)C3CCC3)c2n1Cc1ccc(C(F)(F)F)cc1)C(C)c1ccccn1 (stereo partly drawn) [Example 10.32, 6-(((R)-1-cyclobutylethyl)amino)-8-(propyl(1-(pyridin-2-yl)ethyl)amino)-7-(4-(trifluoromethyl)benzyl)-7H-purine-2-carboxylic acid] | 3.72
25 | CC1CCN(C)C(c2nc3nc(C(=O)O)nc(N[C@H](C)C4CCC4)c3n2C[C@H]2CC[C@H](C)CC2)C1 (stereo partly drawn) [Example 10.33, 6-(((R)-1-Cyclobutylethyl)amino)-8-(1,4-dimethylpiperidin-2-yl)-7-((trans-4-methylcyclohexyl)methyl)-7H-purine-2-carboxylic acid] | 17.7
26 | CCN1CCC(C)CC1c1nc2nc(C(=O)O)nc(N[C@H](C)C3CCC3)c2n1C[C@H]1CC[C@H](C)CC1 (stereo partly drawn) [Example 10.34, 6-(((R)-1-Cyclobutylethyl)amino)-8-(1-ethyl-4-methylpiperidin-2-yl)-7-((trans-4-methylcyclohexyl)methyl)-7H-purine-2-carboxylic acid] | 5.98

Same assay, conditions: Table 11; read-out: FRET IC50

Row | Structure (SMILES) | IC50 [nM]
27 | CC1CCCN(c2nc3nc(C(=O)O)nc(N[C@H](C)C4CCC4)c3n2C[C@H]2CC[C@H](C)CC2)C1C (stereo partly drawn) [Example 11.1, 6-(((R)-1-cyclobutylethyl)amino)-8-(2,3-dimethylpiperidin-1-yl)-7-((trans-4-methylcyclohexyl)methyl)-7H-purine-2-carboxylic acid] | 4.55
28 | CC(C)CC1CCCCN1c1nc2nc(C(=O)O)nc(N[C@H](C)C3CCC3)c2n1C[C@H]1CC[C@H](C)CC1 (stereo partly drawn) [Example 11.2, 6-(((R)-1-cyclobutylethyl)amino)-8-(2-isobutylpiperidin-1-yl)-7-((trans-4-methylcyclohexyl)methyl)-7H-purine-2-carboxylic acid] | 1.82
